Test results reported in patent US11376203B2, “Hair treatment composition” (Conopco, Inc., priority 2017, dated 2022).

Key:
[1] = Hair switch shape and frizz control (volume) after straightening and exposure to high humidity; details: After 1 hour at high humidity (30 C./80% RH); switches soaked 30 minutes in 1% aqueous solution, dried, straightened with 5 passes of irons; volume vs water control
Protocol: (§1) Dark brown European wavy hair switches of length 25 cm and weight 2 gms, were treated as follows:
Control: After initial washing, soaked for 30 minutes in water
Comparative Example A: After initial washing, soaked for 30 minutes in aqueous solution of 1% glycine
Example 1: soaked for 30 minutes in aqueous solution of 1% N-formyl glycine
(§2) At the end of the soaking period, the switches were left to dry at 20° C. and 50% RH. When dried, the switches were straightened with 5 passes of FHI irons (FHI Brands, 29003 Avenue Sherman Valencia, Calif. 91355 USA). The switches were then placed in a humidity chamber ˜30 C/80% RH for 1 hour and images were captured and analyzed.

[2] = Hair switch volume reduction benefit after subsequent washing; details: switches from Example 1 subsequently washed, images captured; compared to control
Protocol: as §1, §2
The switches from the above example were subsequently washed and the images were captured. […] The corresponding benefits for glycine was only −10%.

SMILES	% shape and frizz control benefit against control [1] [%]	benefit over control (volume reduction) after washing [2] [%]
NCC(=O)O [Comparative Example A, glycine]	−6	−10
O=CNCC(=O)O [Example 1, N-formyl glycine]	30	32
